Reference: patent publication US9249140B2, “Bicyclic heteroaromatic compounds” (MERCK PATENT GMBH, priority 2011, dated 2016)

Key:
[1] = molecular target: T1, FAK (Homo sapiens, UniProt Q05397); experiment: FAK kinase assay (autophosphorylation), 384-well flashplate; type: biochemical; conditions: enzymatic; 1 μM ATP; read-out: IC50 (enzymatic), FAK inhibition
T1 construct: 2 nM FAK, 400 nM biotinylated substrate
Experimental: The focal adhesion kinase (FAK) assay is carried out either as a 384-well flashplate assay (for example for Topcount measurements) or as a 384-well image flashplate assay (for LEADseeker measurements). […] The reaction is stopped using 25 μl of 200 mM EDTA. After 30 min at 30° C., the liquid is removed, and each well is washed three times with 100 μl of 0.9% sodium chloride solution. Non-specific reaction is determined in the presence of 1 μM EMD 1076893/0(PF-562271). The radioactivity is measured using Topcount (in the case of the use of flashplates) or using LEADseeker (in the case of the use of image flashplates).

[2] = molecular target: T1, FAK; experiment: Cellular testing of FAK kinase inhibitors: autophosphorylation of FAK at tyrosine 397, Luminex-based assay in HT29 cells; type: cell-based; conditions: P-Y397-FAK in HT29 cells, 30 min, serum-free, read-out: IC50 (cellular), FAK inhibition
Experimental: For analysis of the cellular activity of FAK, the extent of autophosphorylation of FAK at tyrosine 397 is determined with the aid of a Luminex-based assay in the 96-well format. HT29 cells are sown out with 30,000 cells per well in 100 μl of medium (90% of DMEM/10% of FCS) and incubated on the following day for 30 min with a serial dilution of the test substance (7 concentrations) under serum-free conditions. The cells are subsequently lysed using 90 μl of lysis buffer (20 mM tris/HCl pH 8.0, 150 mM NaCl, 1% of NP40, 10% of glycerol, 1% of phosphatase inhibitor II, 20 mM β-glycerol phosphate, 0.1% of protease inhibitor cocktail III, 0.01% of benzonase) per well, and the lysates are separated off from insoluble cell constituents by means of centrifugation through a 96-well filter plate (0.65 μm). The lysates are incubated at 4° C. overnight with shaking with Luminex beads to which an anti-total FAK antibody is coupled. The detection is carried out on the following day by addition of a P-Y397-FAK antibody and a species-specific PE-labelled secondary antibody. P-Y397-FAK is detected by measurement in the Luminex100 instrument by determination of 100 events per cavity in a measurement time of 60 sec. […] The values of the batches treated with test substance are calculated therefrom as percent of control, and IC50 values are determined by means of Assay Explorer.

T1 sequence (Q05397 whole entry): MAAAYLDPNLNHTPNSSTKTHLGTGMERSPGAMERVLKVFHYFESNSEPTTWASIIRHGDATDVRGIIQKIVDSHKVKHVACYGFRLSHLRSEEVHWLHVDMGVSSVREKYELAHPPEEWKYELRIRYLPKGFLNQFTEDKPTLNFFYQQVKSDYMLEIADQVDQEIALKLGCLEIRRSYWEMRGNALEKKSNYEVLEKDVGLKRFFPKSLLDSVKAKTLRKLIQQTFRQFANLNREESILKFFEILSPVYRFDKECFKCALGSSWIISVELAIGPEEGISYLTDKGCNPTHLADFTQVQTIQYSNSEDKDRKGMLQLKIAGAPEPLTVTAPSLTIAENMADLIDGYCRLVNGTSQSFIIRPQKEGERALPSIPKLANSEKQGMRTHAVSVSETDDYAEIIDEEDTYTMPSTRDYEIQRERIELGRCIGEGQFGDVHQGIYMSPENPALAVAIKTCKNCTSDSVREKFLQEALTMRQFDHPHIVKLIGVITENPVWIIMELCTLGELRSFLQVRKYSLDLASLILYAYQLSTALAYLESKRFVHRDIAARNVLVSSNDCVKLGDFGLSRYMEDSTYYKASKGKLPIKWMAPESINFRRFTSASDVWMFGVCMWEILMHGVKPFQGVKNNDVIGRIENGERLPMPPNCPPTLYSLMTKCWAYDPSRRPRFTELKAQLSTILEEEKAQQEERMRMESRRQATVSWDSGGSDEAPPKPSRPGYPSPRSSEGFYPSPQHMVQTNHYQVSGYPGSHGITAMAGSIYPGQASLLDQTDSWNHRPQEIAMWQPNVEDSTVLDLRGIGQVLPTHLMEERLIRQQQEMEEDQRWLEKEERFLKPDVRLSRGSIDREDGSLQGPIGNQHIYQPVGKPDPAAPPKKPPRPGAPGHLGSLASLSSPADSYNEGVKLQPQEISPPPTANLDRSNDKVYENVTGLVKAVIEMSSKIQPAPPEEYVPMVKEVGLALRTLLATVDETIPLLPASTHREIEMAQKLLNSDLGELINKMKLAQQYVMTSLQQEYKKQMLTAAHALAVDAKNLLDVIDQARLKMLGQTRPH

CN(c1ncccc1CNc1c(C#N)cnc2[nH]cc(Cl)c12)S(C)(=O)=O [A10, N-{3-[(3-Chloro-5-cyano-1H-pyrrolo[2,3-b]-pyridin-4-ylamino)methyl]pyridin-2-yl}-N-methylmethanesulfonamide]
IC50 [1]: 0.3 to 3 µM | IC50 [2]: 3 to 50 µM
